From patent US20110263569A1, “RYANODINE CHANNEL BINDERS AND USES THEREOF” (President and Fellows of Harvard College, priority 2007, published 2011) come the findings set out here.

For this assay, the target named is T1, calstabin2 (FKBP12.6) binding to PKA-phosphorylated cardiac sarcoplasmic reticulum (CSR) (Homo sapiens, UniProt Q92736).
T1 construct: from tissue
T1 sequence (Q92736 whole entry): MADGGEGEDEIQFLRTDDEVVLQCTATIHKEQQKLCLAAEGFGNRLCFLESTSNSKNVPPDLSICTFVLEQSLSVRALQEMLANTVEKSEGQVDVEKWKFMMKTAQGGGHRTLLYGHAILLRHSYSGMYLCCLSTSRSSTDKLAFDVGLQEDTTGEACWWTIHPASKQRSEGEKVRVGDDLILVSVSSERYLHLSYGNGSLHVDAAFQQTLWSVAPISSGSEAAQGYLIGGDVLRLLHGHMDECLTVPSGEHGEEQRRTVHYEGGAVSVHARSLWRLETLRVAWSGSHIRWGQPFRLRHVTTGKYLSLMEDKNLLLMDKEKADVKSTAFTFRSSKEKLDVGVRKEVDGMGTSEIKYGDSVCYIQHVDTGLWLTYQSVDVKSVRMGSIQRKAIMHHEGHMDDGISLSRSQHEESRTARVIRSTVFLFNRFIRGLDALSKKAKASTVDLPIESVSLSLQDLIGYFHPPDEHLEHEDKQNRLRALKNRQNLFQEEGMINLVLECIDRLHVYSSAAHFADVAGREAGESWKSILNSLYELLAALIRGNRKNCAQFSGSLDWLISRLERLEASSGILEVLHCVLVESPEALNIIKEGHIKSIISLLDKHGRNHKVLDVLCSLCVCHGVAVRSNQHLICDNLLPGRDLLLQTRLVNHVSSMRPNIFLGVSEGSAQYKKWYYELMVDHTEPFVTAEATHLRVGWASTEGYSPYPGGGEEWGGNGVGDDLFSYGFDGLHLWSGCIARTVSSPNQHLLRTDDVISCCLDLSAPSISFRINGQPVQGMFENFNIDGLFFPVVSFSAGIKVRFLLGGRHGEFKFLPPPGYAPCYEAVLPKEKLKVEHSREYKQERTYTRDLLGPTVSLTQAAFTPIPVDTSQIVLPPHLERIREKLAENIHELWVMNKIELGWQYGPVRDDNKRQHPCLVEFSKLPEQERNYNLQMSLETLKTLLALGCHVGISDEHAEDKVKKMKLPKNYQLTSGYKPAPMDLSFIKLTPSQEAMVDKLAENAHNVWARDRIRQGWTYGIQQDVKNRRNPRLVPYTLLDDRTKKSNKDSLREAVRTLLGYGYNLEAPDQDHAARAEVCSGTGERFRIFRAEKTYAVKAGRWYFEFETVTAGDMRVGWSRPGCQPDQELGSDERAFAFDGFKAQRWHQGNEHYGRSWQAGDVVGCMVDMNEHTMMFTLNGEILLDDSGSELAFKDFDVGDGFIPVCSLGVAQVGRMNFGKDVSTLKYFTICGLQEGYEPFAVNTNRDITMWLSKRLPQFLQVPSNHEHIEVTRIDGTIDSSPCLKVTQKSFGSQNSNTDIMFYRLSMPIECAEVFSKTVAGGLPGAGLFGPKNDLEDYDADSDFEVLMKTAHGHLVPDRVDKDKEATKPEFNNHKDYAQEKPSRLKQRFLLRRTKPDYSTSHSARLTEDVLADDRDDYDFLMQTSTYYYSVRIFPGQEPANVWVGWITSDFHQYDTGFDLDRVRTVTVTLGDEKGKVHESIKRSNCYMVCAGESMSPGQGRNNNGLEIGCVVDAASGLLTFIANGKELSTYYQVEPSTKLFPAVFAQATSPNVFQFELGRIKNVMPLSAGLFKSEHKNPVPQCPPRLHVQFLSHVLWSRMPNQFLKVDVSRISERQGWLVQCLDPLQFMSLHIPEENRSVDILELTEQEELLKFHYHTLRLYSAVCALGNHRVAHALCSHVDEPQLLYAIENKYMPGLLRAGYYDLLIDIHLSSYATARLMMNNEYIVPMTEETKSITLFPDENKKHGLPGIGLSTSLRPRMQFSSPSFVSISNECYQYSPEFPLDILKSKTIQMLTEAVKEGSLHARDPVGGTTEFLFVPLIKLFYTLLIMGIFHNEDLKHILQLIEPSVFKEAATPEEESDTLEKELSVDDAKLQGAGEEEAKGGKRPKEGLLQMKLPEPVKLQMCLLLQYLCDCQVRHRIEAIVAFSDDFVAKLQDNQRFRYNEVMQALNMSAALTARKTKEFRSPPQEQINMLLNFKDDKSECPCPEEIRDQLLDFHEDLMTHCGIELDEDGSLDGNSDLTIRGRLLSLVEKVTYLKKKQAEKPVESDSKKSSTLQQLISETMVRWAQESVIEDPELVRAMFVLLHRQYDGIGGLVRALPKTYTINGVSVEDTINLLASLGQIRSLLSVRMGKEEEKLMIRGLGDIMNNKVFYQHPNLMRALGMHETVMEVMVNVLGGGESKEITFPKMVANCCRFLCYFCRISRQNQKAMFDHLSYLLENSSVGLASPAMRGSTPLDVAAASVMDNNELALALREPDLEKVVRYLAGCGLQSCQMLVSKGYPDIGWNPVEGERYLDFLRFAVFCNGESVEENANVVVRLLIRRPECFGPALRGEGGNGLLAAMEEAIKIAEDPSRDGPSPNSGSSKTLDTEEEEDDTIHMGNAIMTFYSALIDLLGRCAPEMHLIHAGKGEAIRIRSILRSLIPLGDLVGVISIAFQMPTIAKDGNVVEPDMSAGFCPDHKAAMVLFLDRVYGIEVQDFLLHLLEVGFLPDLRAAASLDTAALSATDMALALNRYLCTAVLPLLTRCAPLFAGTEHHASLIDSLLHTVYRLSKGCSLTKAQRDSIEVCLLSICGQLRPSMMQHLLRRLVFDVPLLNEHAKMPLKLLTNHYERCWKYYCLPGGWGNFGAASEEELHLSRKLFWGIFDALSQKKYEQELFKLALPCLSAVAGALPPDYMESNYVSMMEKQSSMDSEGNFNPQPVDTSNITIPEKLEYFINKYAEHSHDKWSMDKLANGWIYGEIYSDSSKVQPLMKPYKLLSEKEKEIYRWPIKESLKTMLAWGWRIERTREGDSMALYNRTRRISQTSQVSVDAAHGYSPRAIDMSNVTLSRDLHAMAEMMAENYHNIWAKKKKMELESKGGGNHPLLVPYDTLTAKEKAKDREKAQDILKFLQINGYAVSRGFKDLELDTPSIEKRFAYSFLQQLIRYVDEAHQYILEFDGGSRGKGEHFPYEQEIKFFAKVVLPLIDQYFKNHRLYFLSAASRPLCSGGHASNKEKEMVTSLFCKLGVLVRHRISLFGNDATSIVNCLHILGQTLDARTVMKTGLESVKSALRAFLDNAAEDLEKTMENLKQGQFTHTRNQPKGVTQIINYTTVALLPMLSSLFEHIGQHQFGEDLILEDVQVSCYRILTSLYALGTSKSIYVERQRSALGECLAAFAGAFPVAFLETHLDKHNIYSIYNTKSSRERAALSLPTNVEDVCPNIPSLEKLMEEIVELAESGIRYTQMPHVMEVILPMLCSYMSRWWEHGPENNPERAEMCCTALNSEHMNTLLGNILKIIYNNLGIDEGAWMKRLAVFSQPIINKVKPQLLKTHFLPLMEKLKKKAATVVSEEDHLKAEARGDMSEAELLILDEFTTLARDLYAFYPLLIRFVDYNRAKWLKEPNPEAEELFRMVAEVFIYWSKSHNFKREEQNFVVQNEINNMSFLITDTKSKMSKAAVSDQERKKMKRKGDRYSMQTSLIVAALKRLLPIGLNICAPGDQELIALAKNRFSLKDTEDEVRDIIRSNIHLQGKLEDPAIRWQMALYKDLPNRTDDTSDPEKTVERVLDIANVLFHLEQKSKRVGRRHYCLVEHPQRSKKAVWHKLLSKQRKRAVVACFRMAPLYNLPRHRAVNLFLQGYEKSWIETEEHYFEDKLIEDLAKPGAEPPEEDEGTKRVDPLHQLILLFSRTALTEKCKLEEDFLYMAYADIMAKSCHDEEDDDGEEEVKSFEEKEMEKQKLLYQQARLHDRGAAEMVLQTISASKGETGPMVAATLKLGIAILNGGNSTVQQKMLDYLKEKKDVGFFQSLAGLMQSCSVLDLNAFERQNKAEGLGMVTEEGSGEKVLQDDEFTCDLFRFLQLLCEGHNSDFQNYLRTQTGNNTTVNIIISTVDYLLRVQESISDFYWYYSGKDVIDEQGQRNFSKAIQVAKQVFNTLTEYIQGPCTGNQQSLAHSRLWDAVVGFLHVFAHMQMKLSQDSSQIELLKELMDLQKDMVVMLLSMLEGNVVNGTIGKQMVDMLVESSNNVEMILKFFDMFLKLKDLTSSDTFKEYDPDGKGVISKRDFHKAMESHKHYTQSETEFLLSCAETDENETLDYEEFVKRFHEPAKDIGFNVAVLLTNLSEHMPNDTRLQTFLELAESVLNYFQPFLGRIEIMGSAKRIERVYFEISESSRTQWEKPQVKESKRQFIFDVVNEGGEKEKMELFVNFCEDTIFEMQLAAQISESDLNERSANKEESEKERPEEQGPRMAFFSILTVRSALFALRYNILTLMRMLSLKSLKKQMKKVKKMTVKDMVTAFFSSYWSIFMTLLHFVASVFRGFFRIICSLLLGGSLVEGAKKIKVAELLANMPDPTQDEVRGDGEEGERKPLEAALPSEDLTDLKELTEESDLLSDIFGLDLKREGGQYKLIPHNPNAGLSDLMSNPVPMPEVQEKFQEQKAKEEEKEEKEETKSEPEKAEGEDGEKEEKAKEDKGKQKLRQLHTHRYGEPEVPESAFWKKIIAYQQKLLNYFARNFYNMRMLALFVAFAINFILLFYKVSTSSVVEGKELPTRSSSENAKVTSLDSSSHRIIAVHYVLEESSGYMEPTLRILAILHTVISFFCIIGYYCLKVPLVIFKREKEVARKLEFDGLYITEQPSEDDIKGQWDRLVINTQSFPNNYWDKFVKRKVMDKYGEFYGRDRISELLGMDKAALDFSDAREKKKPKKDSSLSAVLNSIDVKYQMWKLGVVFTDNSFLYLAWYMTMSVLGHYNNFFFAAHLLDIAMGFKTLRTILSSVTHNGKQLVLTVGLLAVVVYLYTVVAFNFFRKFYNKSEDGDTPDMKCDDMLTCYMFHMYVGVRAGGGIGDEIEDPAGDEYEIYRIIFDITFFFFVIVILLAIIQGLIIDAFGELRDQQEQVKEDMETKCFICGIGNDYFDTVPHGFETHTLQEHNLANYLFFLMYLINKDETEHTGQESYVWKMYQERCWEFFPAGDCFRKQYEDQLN
T1 sequence (P68106 whole entry partner): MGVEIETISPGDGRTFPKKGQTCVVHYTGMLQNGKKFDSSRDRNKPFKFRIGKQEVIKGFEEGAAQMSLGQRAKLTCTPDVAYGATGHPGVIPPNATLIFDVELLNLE
Nature of the assay: Calstabin 2 (FKBP12.6) Assay. Particulars: 250 nM calstabin2, approximately 20 μg PKA-phosphorylated CSR, room temperature 30 minutes, immunoblot detection of calstabin2 binding. Here is the method:
PKA-phosphorylated cardiac sarcoplasmic reticulum (CSR) (approximately 20 μg) is incubated with 250 nM calstabin2 (FKBP12.6) in 100 μl binding buffer (10 mM imidazole, 300 mM sucrose, pH 7.4) with a known concentration of the test compound. Calstabin2 is added as the last reagent in the reaction mixture. The binding is performed at room temperature for 30 minutes. After the binding reaction, the mixture is centrifuged for 10 minutes at 100,000 xg. The resulting pellet is washed 4 times in binding buffer. After each wash, the tubes are centrifuged at 100,000 xg for 10 minutes. After the final wash, the supernatant is aspirated off 20 μl of 2×SDS-PAGE loading buffer is added to each pellet, and the pellet is resuspended. The mixture is heated to 90° C. for 4 minutes, and the proteins are analysed by 15% SDS-PAGE. Calstabin2 binding was detected with an αFKBP (1:2000) primary antibody and an IR-labeled anti-rabbit IgG from LiCor Biosciences as the secondary antibody. The blot was developed with a LiCor Odyssey system.
Compound `COc1ccc2c(c1)CN(C(=O)CCN1CCC(Cc3ccccc3)CC1)C[C@@H](C)S2` returned a Binding of 100 nM.

On to `COc1ccc2c(c1)CN(C(=O)CCN1CCC(Cc3ccccc3)CC1)C(C)CS2` (stereo not drawn), for which the Binding came to 100 nM.

`COc1ccc2c(c1)CN(C(=O)CCN1CCC(Cc3ccccc3)CC1)[C@@H](C)[C@@H](C)S2` gave a Binding of 100 nM.

Consider `COc1ccc2c(c1)CN(C(=O)CCN1CCC(Cc3ccccc3)CC1)C[C@@H](C)O2`, for which the Binding came to 100 nM.

For `COc1ccc2c(c1)CN(C(=O)CCN1CCC(Cc3ccccc3)CC1)C[C@H](C)O2`, the Binding is on record as 100 nM.

As to `COc1cccc(OC)c1CN(C)C(=O)CCN1CCC(Cc2ccccc2)CC1`, the Binding came to 1000 nM.

With `COc1ccc2c(c1)CN(C(=O)CCN1CCC(Cc3ccccc3)CC1)[C@H](C)[C@H](C)S2`, the Binding was 1000 nM.

In turn, `COc1ccc2c(c1)C/C(=C\CCN1CCC(Cc3ccccc3)CC1)CCS2` showed a Binding of 1000 nM.

In turn, `COc1ccc2c(c1)C/C(=C/CCN1CCC(Cc3ccccc3)CC1)CCS2` registered a Binding of 100 nM.
